Laboratory results as given in patent US6692757B1, “Multi-component, safe biocidal complex” (Board of Supervisors of Louisiana State University and …, priority 1999, dated 2004).

How the values were obtained:
[1] = tested on: Salmonella typhimurium in broth culture; experiment: MIC in broth culture, S. typhimurium; assay type: cell-based; conditions: single agent; nutrient broth, 24 hours at 37° C.; no detectable growth
Procedure: (§1) Nutrient broth was mixed with the complete Biocidal Complex or with combinations of ingredients, and then serially diluted two-fold in stages. Various combinations of biocidal ingredients and broth were inoculated with 0.1 ml of either Salmonella typhimurium or Escherichia coli B to give a microbial count of about 10^7 cfu/ml. Inoculated broth was then incubated for 24 hours at 37° C. for S. typhimurium, or at 32° C. for E. coli.

[2] = tested on: Escherichia coli in broth culture; experiment: MIC in broth culture, E. coli; assay type: cell-based, Escherichia coli B; conditions: single agent; nutrient broth, 24 hours at 32° C.; no detectable growth
Procedure: as §1

[3] = tested on: bacteria endogenous to the city water system (biofilm on glass beads); experiment: Biofilm-contaminated glass beads column: organisms released in effluent; assay type: cell-based; parameters: key: −: No significant reduction in number of organisms.; +/−: A small or transient reduction in number of organisms.; +: A significant reduction in number of organisms.; +++: A reduction to below 10 organisms per ml effluent; conditions: hydrogen peroxide 3% v/v, NaHSO4 0.06% w/v, thymol >0.1% w/v, iron chip, treated four days, 12 h static
Procedure: The beads were first contaminated with bacteria endogenous to the city water system for five days.
0.06% w/v; and thymol, >0.1% w/v. Additionally, an iron chip was added to the Biocidal Complex.
Glass beads with an established biofilm were treated, and samples collected and analyzed, as described above.

[4] = tested on: Escherichia coli on chicken skin; experiment: MIC on inoculated chicken skin, E. coli; assay type: cell-based, Escherichia coli B; conditions: single agent; chicken skin immersed 10 min at 20° C.; concentration reducing final count below 17.5 cfu/cm^2
Procedure: To test the effectiveness of Biocidal Complex on other surfaces, a 5.7 cm^2 piece of chicken leg skin was placed in a holder made from a bottomless 50 ml centrifuge tube with a cap to support the skin test strip. Each skin sample was initially immersed in water. […] The bacteria were counted as described below. This value served as the control. The skin was then exposed to germicidal ultraviolet light for 5 min to sanitize the skin prior to inoculation. The sanitized skin was inoculated with 1 ml of a cell suspension containing 10^8 cfu/ml of either Salmonella typhimurium or Escherichia coli B and incubated for 30 min at 37° C. and 32° C., respectively. The inoculated skin samples were immersed in Biocidal Complex or in other combinations of ingredients at 20° C. for 10 min. […] The cotton swabs from both the control and treated skin were vortex-mixed for 1 min in a 0.1% peptone solution (pH 7.2). Then 0.5 ml of peptone solution was plated on MacConkey agar (Difco Laboratory, Detroit, Michigan). The plates were incubated for 24 hr at either 37° C. or 32° C. before counting the colonies. Microbial counts were expressed as cfu/cm^2, based on a total skin sample area of 5.7 cm^2. An initial level of contamination before treatment with Biocidal Complex (or water) was assessed for each sample. […] Initial contamination level of the inoculated skin after 30 min incubation time and immediately prior to treatment was 140,000 cfu/cm^2.

[5] = tested on: Salmonella typhimurium on chicken skin; experiment: MIC on inoculated chicken skin, S. typhimurium; assay type: cell-based; conditions: single agent; chicken skin immersed 10 min at 20° C.; concentration reducing final count below 17.5 cfu/cm^2
Procedure: To test the effectiveness of Biocidal Complex on other surfaces, a 5.7 cm^2 piece of chicken leg skin was placed in a holder made from a bottomless 50 ml centrifuge tube with a cap to support the skin test strip. Each skin sample was initially immersed in water. […] The bacteria were counted as described below. This value served as the control. The skin was then exposed to germicidal ultraviolet light for 5 min to sanitize the skin prior to inoculation. The sanitized skin was inoculated with 1 ml of a cell suspension containing 10^8 cfu/ml of either Salmonella typhimurium or Escherichia coli B and incubated for 30 min at 37° C. and 32° C., respectively. The inoculated skin samples were immersed in Biocidal Complex or in other combinations of ingredients at 20° C. for 10 min. […] The cotton swabs from both the control and treated skin were vortex-mixed for 1 min in a 0.1% peptone solution (pH 7.2). Then 0.5 ml of peptone solution was plated on MacConkey agar (Difco Laboratory, Detroit, Michigan). The plates were incubated for 24 hr at either 37° C. or 32° C. before counting the colonies. Microbial counts were expressed as cfu/cm^2, based on a total skin sample area of 5.7 cm^2. An initial level of contamination before treatment with Biocidal Complex (or water) was assessed for each sample. […] Contamination level of the inoculated skin after 30 min incubation time and immediately before treatment was 3,500,000 cfu/cm^2. The water-washed control skin ha 1,750 cfu/cm^2.

MIC (%) [1] [%]	MIC (%) [2] [%]	MIC (%) [4] [%]	MIC (%) [5] [%]	SMILES	Effect: qualitative changes in number of organisms released from established biofilms [3]
0.04	0.02	>0.1	>0.1	Cc1ccc(C(C)C)c(O)c1 [Thymol, thymol]	+/−
0.025	0.013	1.0	1.0	OCl [Sodium Hypochlorite, sodium hypochlorite, reference compound]	

SMILES	MIC (%) [1] [%]	MIC (%) [2] [%]	MIC (%) [4] [%]	MIC (%) [5] [%]	Effect: qualitative changes in number of organisms released from established biofilms [3]
OO [H2O2, hydrogen peroxide]	0.012	0.006	4.0	7.0	−
